Laboratory results: paper PMC7531004, “Discovery of gramicidin A analogues with altered activities by multidimensional screening of a one-bead-one-compound library” (Nature Communications, 2020)
Where a SMILES comes first, the peptide text is derived from it. [ ]: non-standard residue; d: D form. The star is where a group is joined. NHCH2CH2OH = OCCN*; For = O=C*

Assays:
[1] = H+/Na+ transport assay of bead-derived peptides (one-point); format: biochemical; parameters: key: relative activity; mean of two control wells = 1.00; details: bead-derived peptide solution, EYPC/EYPG LUVs;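 also: relative to parent gramicidin A activity set to 1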
In short: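 H+/Na+ transport is monitored through pyranine fluorescence in freshly extruded LUVs after a 30-min room-temperature vortex with each library peptide at a single concentration. Signals are normalized to detergent (Triton X-100) and untreated controls.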

[2] = cell viability/%
In short: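 Peptide stocks diluted 250× in growth medium; P388 cells 1 × 10^4 cells/mL final; 37 °C, 5% CO2, 92 h. WST-1 + 1-methoxy PMS, 4 h, A415. Output: % viability.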

[3] = tested on: Streptococcus pyogenes SSI-9; assay: Antibacterial activity assay of bead-derived peptides (three concentrations); format: cell-based; parameters: key: +++: inhibition by the 640-fold diluted peptide solution; ++: inhibition by the 160-fold diluted solution; +: inhibition by the 40-fold diluted solution; -: no inhibition; details: S. pyogenes, bead-derived peptide solution, three concentrations
In short: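 Growth inhibition scored visually as precipitated bacteria after 37 °C, 18 h incubation. Streptococcus pyogenes SSI-9 inoculum of 2 × 10^5 CFU in Ca2+/Mg2+-adjusted Mueller Hinton broth plus 5% laked horse blood; peptides tested at three levels: stock, 4-fold and 16-fold DMSO dilutions.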

Compound	H+/Na+ transport activity normalized against the value of 1 (1.00) [1]	viability [2] [%]	antibacterial activity [3]
CC(C)C[C@@H](NC(=O)[C@H](C)NC(=O)CNC(=O)[C@@H](NC=O)C(C)C)C(=O)N[C@@H](C)C(=O)N[C@@H](C(=O)N[C@H](C(=O)N[C@@H](C(=O)N[C@@H](Cc1c[nH]c2ccccc12)C(=O)N[C@H](CC(C)C)C(=O)N[C@@H](Cc1c[nH]c2ccccc12)C(=O)N[C@H](CC(C)C)C(=O)N[C@@H](Cc1c[nH]c2ccccc12)C(=O)N[C@@H](C(=O)N[C@@H](Cc1c[nH]c2ccccc12)C(=O)NCCO)C(C)C)C(C)C)C(C)C)C(C)C [compound 6345] (For-VGA[dL]A[dV]V[dV]W[dL]W[dL]W[dV]W-NHCH2CH2OH)	1.13	57.3	++
CNC(=O)C[C@@H](NC(=O)[C@@H](NC(=O)[C@@H](CC(C)C)NC(=O)[C@H](C)NC(=O)[C@H](NC(=O)[C@H](C)NC(=O)CNC(=O)[C@@H](NC=O)C(C)C)C(C)C)C(C)C)C(=O)N[C@@H](Cc1c[nH]c2ccccc12)C(=O)N[C@H](CC(C)C)C(=O)N[C@@H](Cc1c[nH]c2ccccc12)C(=O)N[C@@H](C(=O)N[C@@H](Cc1c[nH]c2ccccc12)C(=O)N[C@H](CC(C)C)C(=O)N[C@@H](Cc1c[nH]c2ccccc12)C(=O)NCCO)C(C)C [compound 6541] (For-VGA[dV]A[dL]V[dD](NHMe)W[dL]W[dV]W[dL]W-NHCH2CH2OH)	1.14	100	-
CC(C)C[C@@H](NC(=O)[C@H](C)NC(=O)CNC(=O)[C@@H](NC=O)C(C)C)C(=O)N[C@@H](C)C(=O)N[C@@H](C(=O)N[C@H](C(=O)N[C@@H](C(=O)N[C@@H](Cc1c[nH]c2ccccc12)C(=O)N[C@H](CC(C)C)C(=O)N[C@@H](Cc1c[nH]c2ccccc12)C(=O)N[C@@H](C(=O)N[C@@H](Cc1c[nH]c2ccccc12)C(=O)N[C@@H](C(=O)N[C@@H](Cc1c[nH]c2ccccc12)C(=O)NCCO)C(C)C)C(C)C)C(C)C)C(C)C)[C@H](C)O [compound 6549] (For-VGA[dL]A[dT]V[dV]W[dL]W[dV]W[dV]W-NHCH2CH2OH)	1.07	100	-
CC(C)C[C@@H](NC(=O)[C@H](Cc1c[nH]c2ccccc12)NC(=O)[C@H](NC(=O)[C@H](Cc1c[nH]c2ccccc12)NC(=O)[C@H](NC(=O)[C@H](Cc1c[nH]c2ccccc12)NC(=O)[C@H](NC(=O)[C@@H](NC(=O)[C@H](NC(=O)[C@H](C)NC(=O)[C@H](NC(=O)[C@H](C)NC(=O)CNC(=O)[C@@H](NC=O)C(C)C)[C@H](C)O)C(C)C)C(C)C)C(C)C)C(C)C)C(C)C)C(=O)N[C@@H](Cc1c[nH]c2ccccc12)C(=O)NCCO [compound 6606] (For-VGA[dT]A[dV]V[dV]W[dV]W[dV]W[dL]W-NHCH2CH2OH)	1.03	100	-
CC(C)C[C@@H](NC(=O)[C@H](C)NC(=O)[C@H](NC(=O)[C@H](C)NC(=O)CNC(=O)[C@@H](NC=O)C(C)C)C(C)C)C(=O)N[C@H](C(=O)N[C@@H](C(=O)N[C@@H](Cc1c[nH]c2ccccc12)C(=O)N[C@H](CC(C)C)C(=O)N[C@@H](Cc1c[nH]c2ccccc12)C(=O)N[C@@H](C(=O)N[C@@H](Cc1c[nH]c2ccccc12)C(=O)N[C@H](CC(C)C)C(=O)N[C@@H](Cc1c[nH]c2ccccc12)C(=O)NCCO)C(C)C)[C@H](C)O)C(C)C [compound 6842] (For-VGA[dV]A[dL]V[dT]W[dL]W[dV]W[dL]W-NHCH2CH2OH)	1.14	100	-
CC(C)C[C@@H](NC(=O)[C@H](C)NC(=O)CNC(=O)[C@@H](NC=O)C(C)C)C(=O)N[C@@H](C)C(=O)N[C@@H](C(=O)N[C@H](C(=O)N[C@@H](C(=O)N[C@@H](Cc1c[nH]c2ccccc12)C(=O)N[C@H](CC(C)C)C(=O)N[C@@H](Cc1c[nH]c2ccccc12)C(=O)N[C@H](CC(C)C)C(=O)N[C@@H](Cc1c[nH]c2ccccc12)C(=O)N[C@@H](C(=O)N[C@@H](Cc1c[nH]c2ccccc12)C(=O)NCCO)[C@H](C)O)C(C)C)C(C)C)[C@H](C)O [compound 6873] (For-VGA[dL]A[dT]V[dV]W[dL]W[dL]W[dT]W-NHCH2CH2OH)	1.15	100	-
CC(C)C[C@@H](NC(=O)[C@H](C)NC(=O)[C@H](NC(=O)[C@H](C)NC(=O)CNC(=O)[C@@H](NC=O)C(C)C)[C@H](C)O)C(=O)N[C@H](C(=O)N[C@@H](C(=O)N[C@@H](Cc1c[nH]c2ccccc12)C(=O)N[C@@H](C(=O)N[C@@H](Cc1c[nH]c2ccccc12)C(=O)N[C@H](CC(C)C)C(=O)N[C@@H](Cc1c[nH]c2ccccc12)C(=O)N[C@H](CC(C)C)C(=O)N[C@@H](Cc1c[nH]c2ccccc12)C(=O)NCCO)[C@H](C)O)C(C)C)C(C)C [compound 6896] (For-VGA[dT]A[dL]V[dV]W[dT]W[dL]W[dL]W-NHCH2CH2OH)	1.18	100	-
CC(C)C[C@@H](NC(=O)[C@H](C)NC(=O)[C@H](NC(=O)[C@H](C)NC(=O)CNC(=O)[C@@H](NC=O)C(C)C)C(C)C)C(=O)N[C@H](C(=O)N[C@H](CC(C)C)C(=O)N[C@@H](Cc1c[nH]c2ccccc12)C(=O)N[C@@H](C(=O)N[C@@H](Cc1c[nH]c2ccccc12)C(=O)N[C@@H](C(=O)N[C@@H](Cc1c[nH]c2ccccc12)C(=O)N[C@@H](C(=O)N[C@@H](Cc1c[nH]c2ccccc12)C(=O)NCCO)[C@H](C)O)C(C)C)C(C)C)C(C)C [compound 6959] (For-VGA[dV]A[dL]V[dL]W[dV]W[dV]W[dT]W-NHCH2CH2OH)	1.06	100	+
CC(C)C[C@@H](NC(=O)[C@H](C)NC(=O)CNC(=O)[C@@H](NC=O)C(C)C)C(=O)N[C@@H](C)C(=O)N[C@@H](C(=O)N[C@H](C(=O)N[C@@H](C(=O)N[C@@H](Cc1c[nH]c2ccccc12)C(=O)N[C@H](CC(C)C)C(=O)N[C@@H](Cc1c[nH]c2ccccc12)C(=O)N[C@@H](C(=O)N[C@@H](Cc1c[nH]c2ccccc12)C(=O)N[C@@H](C(=O)N[C@@H](Cc1c[nH]c2ccccc12)C(=O)NCCO)[C@H](C)O)C(C)C)C(C)C)C(C)C)C(C)C [compound 7010] (For-VGA[dL]A[dV]V[dV]W[dL]W[dV]W[dT]W-NHCH2CH2OH)	1.07	100	+
CNC(=O)C[C@@H](NC(=O)[C@H](Cc1c[nH]c2ccccc12)NC(=O)[C@@H](CC(C)C)NC(=O)[C@H](Cc1c[nH]c2ccccc12)NC(=O)[C@@H](CC(C)C)NC(=O)[C@H](Cc1c[nH]c2ccccc12)NC(=O)[C@H](NC(=O)[C@@H](NC(=O)[C@H](NC(=O)[C@H](C)NC(=O)[C@H](NC(=O)[C@H](C)NC(=O)CNC(=O)[C@@H](NC=O)C(C)C)C(C)C)C(C)C)C(C)C)C(C)C)C(=O)N[C@@H](Cc1c[nH]c2ccccc12)C(=O)NCCO [compound 7049] (For-VGA[dV]A[dV]V[dV]W[dL]W[dL]W[dD](NHMe)W-NHCH2CH2OH)	1.10	100	-
CC(C)C[C@@H](NC(=O)[C@@H](NC(=O)[C@H](NC(=O)[C@H](C)NC(=O)[C@H](NC(=O)[C@H](C)NC(=O)CNC(=O)[C@@H](NC=O)C(C)C)C(C)C)C(C)C)C(C)C)C(=O)N[C@@H](Cc1c[nH]c2ccccc12)C(=O)N[C@@H](C(=O)N[C@@H](Cc1c[nH]c2ccccc12)C(=O)N[C@@H](C(=O)N[C@@H](Cc1c[nH]c2ccccc12)C(=O)N[C@@H](C(=O)N[C@@H](Cc1c[nH]c2ccccc12)C(=O)NCCO)[C@H](C)O)C(C)C)C(C)C [compound 7050] (For-VGA[dV]A[dV]V[dL]W[dV]W[dV]W[dT]W-NHCH2CH2OH)	1.21	100	-
CC(C)C[C@@H](NC(=O)[C@H](Cc1c[nH]c2ccccc12)NC(=O)[C@H](NC(=O)[C@H](Cc1c[nH]c2ccccc12)NC(=O)[C@H](NC(=O)[C@@H](NC(=O)[C@H](NC(=O)[C@H](C)NC(=O)[C@H](NC(=O)[C@H](C)NC(=O)CNC(=O)[C@@H](NC=O)C(C)C)C(C)C)[C@H](C)O)C(C)C)C(C)C)C(C)C)C(=O)N[C@@H](Cc1c[nH]c2ccccc12)C(=O)N[C@@H](C(=O)N[C@@H](Cc1c[nH]c2ccccc12)C(=O)NCCO)C(C)C [compound 7061] (For-VGA[dV]A[dT]V[dV]W[dV]W[dL]W[dV]W-NHCH2CH2OH)	1.01	100	-
CNC(=O)C[C@@H](NC(=O)[C@H](C)NC(=O)[C@@H](CC(C)C)NC(=O)[C@H](C)NC(=O)CNC(=O)[C@@H](NC=O)C(C)C)C(=O)N[C@H](C(=O)N[C@H](CC(C)C)C(=O)N[C@@H](Cc1c[nH]c2ccccc12)C(=O)N[C@H](CC(C)C)C(=O)N[C@@H](Cc1c[nH]c2ccccc12)C(=O)N[C@@H](C(=O)N[C@@H](Cc1c[nH]c2ccccc12)C(=O)N[C@@H](C(=O)N[C@@H](Cc1c[nH]c2ccccc12)C(=O)NCCO)C(C)C)C(C)C)C(C)C [compound 7119] (For-VGA[dL]A[dD](NHMe)V[dL]W[dL]W[dV]W[dV]W-NHCH2CH2OH)	1.15	100	-
